Experimental findings from patent publication US9943534B2, “Composition for preventing or treating liver cancer containing ginsenoside F2” (INTELLIGENT SYNTHETIC BIOLOGY CENTER, priority 2016, dated 2018) are described below.

The test system of one series is mouse normal hepatocytes. Kind of series: Cell survival rate (EZ-CYTOX), normal hepatocytes. The class given is cell-based. As to conditions: 10 to 60 μM, 24 hours, FIG. 1c. The method, then:
(§1) The ginsenoside F2 prepared in Example 1 was treated to Hep3B cells, a human liver cancer cell line, Hepa1-6 cells, a mouse liver cancer cell line, and mouse normal hepatocytes at various concentrations (10 to 60 μM). After 24 hours, the survival rate of the cells was measured using EZ-CYTOX (Daeil Lab Service, Korea), which is used to measure the cell survival rate, according to the experimental method provided by the manufacturer.

Series [1] concerns human liver cancer cell line (Hep3B). Description: Cell death by phase contrast microscopy and DAPI/TUNEL staining. The class given is cell-based. The settings on record: 10 to 60 μM, 24 hours. The method, then: The cell-killing effect of ginsenoside F2 on the human liver cell line (Hep3B) was confirmed using a phase contrast microscope and a fluorescence microscope.
Specifically, the ginsenoside F2 prepared in Example 1 was treated to the human liver cancer cell line (Hep3B) at various concentrations (10 to 60 μM), and after 24 hours, the state of the cells was observed under the phase contrast microscope. Further, the cells were stained using DAPI (4′,6-diamidino-2-phenylindole, Vector laboratory, USA) and TUNEL (terminal deoxyribonucleotidyl transferase mediated dUTP nick end labeling, Roche life science, USA). The staining was carried out according to the method provided by the manufacturer, and the degree of staining was observed under the fluorescence microscope.

Series [2] relates to liver cancer-induced mice. Kind of series: Diethylnitrosamine (DEN)-induced liver cancer formation in mice: size, number, weight of cancer tissues. The series is classed as in vivo, mouse. As to conditions: 50 mg/kg three times a week for 20 weeks, vs vehicle-treated group. The method, then:
(§2) Diethylnitrosamine (DEN), a hepatocarcinogen, was injected intraperitoneally into 14-day-old male mice at a concentration of 20 mg/kg to induce the formation of liver cancer. A vehicle (olive oil) or ginsenoside F2 (50 mg/kg) was treated three times a week from 20 weeks of age, and then 20 weeks later, the mice were sacrificed to confirm the inhibition of liver cancer formation.
The mice sacrificed in Example 3-1 above were cut open ventrally to remove the liver. Then, the size, number, and weight of the cancer tissues of the vehicle-treated group and the ginsenoside F2-treated group were compared.

The subject of the next series is Hepa1-6 cells. Kind of series: Cell survival rate (EZ-CYTOX), mouse liver cancer cell line. The class given is cell-based. As to conditions: 10 to 60 μM, 24 hours, FIG. 1b. The procedure:
as §1

A further series deals with Hep3B cells. Kind of series: Cell survival rate (EZ-CYTOX), human liver cancer cell line. The series is classed as cell-based. As to conditions: 10 to 60 μM, 24 hours, FIG. 1a. The method, then:
as §1

Series [3] concerns liver cancer-induced mice. Kind of series: Serum ALT and AST in liver cancer-induced mice (VetTEST). As to conditions: 50 mg/kg three times a week for 20 weeks, vs vehicle-treated group. The class given is in vivo, mouse. The method, then: as §2
Blood was collected from the abdominal aorta of the mice sacrificed in Example 3-1 above and centrifuged at 3,300 rpm for 10 minutes using a centrifuge, and then the serum was isolated only. Subsequently, the alanine aminotransferase (ALT), aspartate aminotransferase (AST) and triglyceride were measured by a VetTEST® (IDEXX, USA) according to the experimental method provided by the manufacturer using a kit provided by IDEXX Laboratories (USA).

The subject of series [4] is liver cancer-induced mice. Kind of series: Liver histology (H&E) and flow cytometry of liver immune cells in liver cancer-induced mice. The series is classed as in vivo, mouse. The settings on record: vs vehicle-treated group. The procedure: as §2
The mice sacrificed in Example 3-1 above were cut open ventrally to remove the liver, and then H&E ([…] and eosin) staining was performed to observe the histological changes of the liver.
In order to specifically measure the activity of the immune cells, the immune cells were isolated from the removed liver, and the stained cells were analyzed via a flow cytometer (LSRII, BD bioscience) using the markers shown in Table 1.

Series [5] concerns mouse liver cancer cell line (Hepa1-6). Kind of series: Genomic DNA fragmentation by gel electrophoresis. As to conditions: Hepa1-6, 24 hours, FIG. 3. The class given is cell-based. The procedure:
The cell-killing effect of ginsenoside F2 on the mouse liver cancer cell line (Hepa1-6) was confirmed by confirming the degree of DNA degradation.
Specifically, the ginsenoside F2 prepared in Example 1 was treated to the mouse liver cancer cell line (Hepa1-6) at various concentrations ([…]). After 24 hours, the cells were harvested, and the genomic DNA was extracted using a genomic DNA extraction kit (iNtRON, USA) according to the experimental method provided by the manufacturer, and subsequently, a gel electrophoresis was carried out.

[6] abbreviates: 50 mg/kg three times a week for 20 weeks, FIG. 6a.

As to `CC(C)=CCC[C@](C)(O[C@@H]1O[C@H](CO)[C@@H](O)[C@H](O)[C@H]1O)[C@H]1CC[C@]2(C)[C@@H]1[C@H](O)C[C@@H]1[C@@]3(C)CC[C@H](O[C@@H]4O[C@H](CO)[C@@H](O)[C@H](O)[C@H]4O)C(C)(C)[C@@H]3CC[C@]12C` [ginsenoside F2], in the series on mouse normal hepatocytes, the “survival rate of mouse normal hepatocytes” value is listed as “almost no change was observed”. Also, in series [1] (FIG. 2a), the “cell death under phase contrast microscope” value is “cell death of human liver cancer cell line (Hep3B) was induced”. In addition, the “number of cells stained to DAPI” value in series [1] (fluorescence microscope) is on record as “no difference”. In series [1] (fluorescence microscope, FIGS. 2a and 2b), the “number of cells stained to TUNEL” value is recorded as “increased depending on the concentration of ginsenoside F2”. Further, in series [2], the body weight entry is listed as “no difference”, the “number of cancer tissues” value is “reduced more than twice”, the “size of cancer tissues” value is listed as “significantly reduced” and the “weight of liver tissues” value is “reduced”. For the same molecule, the “survival rate of mouse liver cancer cell line (Hepa1-6)” value in the series on Hepa1-6 cells is listed as “decreased depending on the concentration of ginsenoside F2”. In the series on Hep3B cells, the “survival rate of human liver cancer cell line (Hep3B)” value was “decreased depending on the concentration of ginsenoside F2”. Further, the “serum ALT value” in series [3] (FIG. 5a) is “reduced”. Moreover, the “serum AST value” in series [3] (FIG. 5b) is reported as “reduced”. In series [4] (setting [6]), the “formation of liver cancer (H&E histology)” value was “inhibited” and the “infiltration of immune cells near the liver cancer tissues (H&E)” value was “increased”. Moreover, in series [4] (flow cytometry, FIG. 6b), the “number of CD8 T cells in liver” value is recorded as “increase”, the “number of macrophages in liver” value is “increase” and the “number of natural killer T cells in liver” value is given as “increase”. In addition, in series [5], the “fragmented genomic DNA” value is reported as “increased with increasing concentration of ginsenoside F2”.
